Test results as given in US10602743B2, “Method of inducing drought/salt tolerance using Bacillus megaterium” (Marrone Bio Innovations, Inc., priority 2012, dated 2020).
Where a name gives a salt, the structure may show the parent alone.

What follows are compounds tested on Bacillus megaterium strain H491 (assay: Chemical sensitivity, Biolog Phenotypic Microarray). Conditions: not given.
Assay type: cell-based

Compound	H491 susceptible to compound
O=C([O-])c1ccccc1O.[Na+] [Salicylate, sodium]	susceptible
O=NO [Sodium Nitrite]	susceptible

Same assay, conditions: Biolog Phenotypic Microarray, 25° C.

Compound	H491 susceptible to compound
CCCCCCCC[N+](C)(CCCCCCCC)CCCCCCCC.[Cl-] [Methyltrioctylammonium chloride]	susceptible
CCOc1ccc2ccccc2c1C(=O)N[C@@H]1C(=O)N2[C@@H]1SC(C)(C)[C@@H]2C(=O)O [Nafcillin]	susceptible
CCn1cc(C(=O)O)c(=O)c2ccc(C)nc21 [Nalidixic acid]	susceptible
CO[C@@H]1[C@@H](OC(N)=O)[C@@H](O)[C@H](Oc2ccc3c(O)c(NC(=O)c4ccc(O)c(CC=C(C)C)c4)c(=O)oc3c2C)OC1(C)C [Novobiocin]	susceptible
CO[C@H]1C[C@H](O[C@H]2[C@H](C)[C@@H](O[C@@H]3O[C@H](C)C[C@H](N(C)C)[C@H]3O)[C@@H](C)C[C@@]3(CO3)C(=O)[C@H](C)[C@@H](O)[C@@H](C)[C@@H](C)OC(=O)[C@@H]2C)O[C@@H](C)[C@@H]1O [Oleandomycin, phosphate salt]	susceptible
Cc1ncc([N+](=O)[O-])n1CC(O)CCl (stereo not shown) [Ornidazole]	susceptible
Cc1ccccc1C(OCCN(C)C)c1ccccc1 (stereo not shown) [Orphenadrine]	susceptible
Cc1onc(-c2ccccc2)c1C(=O)N[C@@H]1C(=O)N2[C@@H]1SC(C)(C)[C@@H]2C(=O)O [Oxacillin]	susceptible
CC1=C(C(=O)Nc2ccccc2)S(=O)(=O)CCO1 [Oxycarboxin]	susceptible
NC[C@@H]1O[C@H](O[C@H]2[C@@H](O)[C@H](O[C@@H]3[C@@H](O)[C@H](N)C[C@H](N)[C@H]3O[C@H]3O[C@H](CO)[C@@H](O)[C@H](O)[C@H]3N)O[C@@H]2CO)[C@H](N)[C@@H](O)[C@@H]1O [Paromomycin]	susceptible
O=C1C=C2C(=CCOC2O)O1 (stereo not shown) [Patulin]	susceptible
CC1(C)S[C@@H]2[C@H](NC(=O)Cc3ccccc3)C(=O)N2[C@H]1C(=O)O [Penicillin G]	susceptible
Oc1c(Cl)c(Cl)c(Cl)c(Cl)c1Cl [Pentachlorophenol]	susceptible
CC(Oc1ccccc1)C(=O)N[C@@H]1C(=O)N2[C@@H]1SC(C)(C)[C@@H]2C(=O)O (stereo partly shown) [Phenethicilllin]	susceptible
CC1=CC(=O)c2c(O)cccc2C1=O [Plumbagin]	susceptible
O=[Te]([O-])[O-].[K+].[K+] [Potassium tellurite]	susceptible
OC(CCN1CCCCC1)(c1ccccc1)c1ccccc1 [Pridinol]	susceptible
Nc1ccc2cc3ccc(N)cc3nc2c1 [Proflavine]	susceptible
CC(CN1c2ccccc2Sc2ccccc21)N(C)C (stereo not shown) [Promethazine]	susceptible
COc1ccc(C[C@H](N)C(=O)N[C@H]2[C@@H](O)[C@H](n3cnc4c(N(C)C)ncnc43)O[C@@H]2CO)cc1 [Puromycin]	susceptible
CO[C@H]1/C=C/O[C@@]2(C)Oc3c(C)c([O-])c4c(O)c(cc(O)c4c3C2=O)NC(=O)/C(C)=C\C=C\[C@H](C)[C@H](O)[C@@H](C)[C@@H](O)[C@@H](C)[C@H](OC(C)=O)[C@@H]1C.[Na+] [Rifamycin SV]	susceptible

Compound	H491 susceptible to compound
C[n+]1cc2c3c(ccc2c2ccc4cc5c(cc4c21)OCO5)OCO3 [Sanguinarine chloride]	susceptible
NNC(N)=O [Semicarbazide hydrochloride]	susceptible
CN[C@@H]1[C@@H](O)[C@@H](O[C@@H]2[C@@H](O)[C@H](O[C@H]3OC(CN)=CC[C@H]3N)[C@@H](N)C[C@H]2N)OC[C@]1(C)O [Sisomicin]	susceptible
O=[As]O [Sodium Arsenite]	susceptible
CCCCCCCC(=O)[O-].[Na+] [Sodium Caprylate]	susceptible
N#CO [Sodium Cyanate]	susceptible
[Na+].[Na+].[O]=[Cr](=[O])([O-])[O][Cr](=[O])(=[O])[O-] [Sodium Dichromate]	susceptible
[Na+].[Na+].[O]=[W](=[O])([O-])[O-] [Sodium Tungstate]	susceptible
O=B[O-].[Na+] [Sodium metaborate]	susceptible
[Na+].[Na+].[Na+].[O]=[V]([O-])([O-])[O-] [Sodium orthovanadate]	susceptible
[Na+].[O-][I+3]([O-])([O-])[O-] [Sodium periodate]	susceptible
Nc1ccc(S(=O)(=O)Nc2ccc(Cl)nn2)cc1 [Sulfachloropyridazine]	susceptible
Nc1ccc(S(=O)(=O)Nc2ncccn2)cc1 [Sulfadiazine]	susceptible
Cc1cc(NS(=O)(=O)c2ccc(N)cc2)no1 [Sulfamethoxazole]	susceptible
Nc1ccc(S(N)(=O)=O)cc1 [Sulfanilamide]	susceptible
Nc1ccc(S(=O)(=O)Nc2nccs2)cc1 [Sulfathiazole]	susceptible
CCN(CC)C(=S)SSC(=S)N(CC)CC [Tetraethylthiuram disulfide]	susceptible
c1ccc(-c2nn(-c3ccccc3)[n+](-c3cccc4ccccc34)n2)cc1 [Tetrazolium violet]	susceptible
CC(=O)[O-].[Tl+] [Thallium (I) acetate]	susceptible
CS(=O)(=O)c1ccc([C@@H](O)[C@@H](CO)NC(=O)C(Cl)Cl)cc1 [Thiamphenicol]	susceptible
CSc1ccc2c(c1)N(CCC1CCCCN1C)c1ccccc1S2 (stereo not shown) [Thioridazine]	susceptible

Compound	H491 susceptible to compound
O=C(O)c1ccccc1S [Thiosalicylate]	susceptible
CCS(=O)(=O)CCn1c([N+](=O)[O-])cnc1C [Tinidazole]	susceptible
NC[C@H]1O[C@H](O[C@H]2[C@H](O)[C@@H](O[C@H]3O[C@H](CO)[C@@H](O)[C@H](N)[C@H]3O)[C@H](N)C[C@@H]2N)[C@H](N)C[C@@H]1O [Tobramycin]	susceptible
Cc1ccc(N(SC(F)(Cl)Cl)S(=O)(=O)N(C)C)cc1 [Tolylfluanid]	susceptible
CN1CCN(CCCN2c3ccccc3Sc3ccc(C(F)(F)F)cc32)CC1 [Trifluoperazine]	susceptible
O=c1[nH]c(=O)n([C@H]2C[C@H](O)[C@@H](CO)O2)cc1C(F)(F)F [Trifluorothymidine]	susceptible
CO[C@H]1C[C@H](O[C@H]2[C@H](C)[C@@H](O[C@@H]3O[C@H](C)C[C@H](N(C)C)[C@H]3OC(C)=O)[C@@H](C)C[C@@]3(CO3)C(=O)[C@H](C)[C@@H](OC(C)=O)[C@@H](C)[C@@H](C)OC(=O)[C@@H]2C)O[C@@H](C)[C@@H]1OC(C)=O [Troleandomycin]	susceptible
CC[C@H]1OC(=O)C[C@@H](O)[C@H](C)[C@@H](O[C@@H]2O[C@H](C)[C@@H](O[C@H]3C[C@@](C)(O)[C@@H](O)[C@H](C)O3)[C@H](N(C)C)[C@H]2O)[C@@H](CC=O)C[C@@H](C)C(=O)/C=C/C(C)=C/[C@@H]1CO[C@@H]1O[C@H](C)[C@@H](O)[C@@H](OC)[C@H]1OC [Tylosin]	susceptible
CN[C@H](CC(C)C)C(=O)N[C@H]1C(=O)N[C@@H](CC(N)=O)C(=O)N[C@H]2C(=O)N[C@H]3C(=O)N[C@H](C(=O)N[C@H](C(=O)O)c4cc(O)cc(O)c4-c4cc3ccc4O)[C@H](O)c3ccc(c(Cl)c3)Oc3cc2cc(c3O[C@@H]2O[C@H](CO)[C@@H](O)[C@H](O)[C@H]2O[C@H]2C[C@](C)(N)[C@H](O)[C@H](C)O2)Oc2ccc(cc2Cl)[C@H]1O [Vancomycin]	susceptible
O=C(O)/C=C/c1ccccc1 [trans-Cinnamic acid]	susceptible
Acriflavine	susceptible
Capreomycin	susceptible
Neomycin	susceptible
Niaproof	susceptible
Penimepicycline	susceptible
Phleomycin	susceptible
Poly-L-lysine	susceptible
Polymyxin B	susceptible
Protamine sulfate	susceptible
Sodium metavanadate	susceptible
Spiramycin	susceptible

Same assay, conditions: Biolog Phenotypic Microarray; at a maximum concentration of 4 ug

Compound	Resistance of H491 observed in wells containing compound
NCC[C@H](O)C(=O)N[C@@H]1C[C@H](N)[C@@H](O[C@H]2O[C@H](CN)[C@@H](O)[C@H](O)[C@H]2O)[C@H](O)[C@H]1O[C@H]1O[C@H](CO)[C@@H](O)[C@H](N)[C@H]1O [amikacin]	Resistance
CCn1cc(C(=O)O)c(=O)c2cc(F)c(N3CCNC(C)C3)c(F)c21 (stereo not shown) [lomefloxacin]	Resistance
CCn1cc(C(=O)O)c(=O)c2cc3c(cc21)OCO3 [oxolinic acid]	Resistance
CN[C@@H]1[C@H](O)[C@H](NC)[C@H]2O[C@@]3(O)C(=O)C[C@@H](C)O[C@H]3O[C@@H]2[C@H]1O [spectinomycin]	Resistance
Cc1cc(C)nc(NS(=O)(=O)c2ccc(N)cc2)n1 [sulfamethazine]	Resistance
Polymyxin B	Resistance
bleomycin	Resistance
colistin	Resistance
